# Measurements published in EPA's ToxValDB 9.5.
# Values joined by “and” are separate entries in the source; they are usually repeats but may differ in a detail not shown here. Identical values can stand only once.
# System: Mus musculus
# Settings: oral
# [1] = developmental, duration: 16 days, gavage, F, B6C3F1, generation: F1, F1: spleen: spleen B220+ cells + F1: spleen: Splenic NK cell activity
# [2] = developmental, duration: 16 days, gavage, M, B6C3F1, generation: F1, F1: IgM antibody titer (SRBC) + F1: thymus: thymus CD3+ cells + F1: thymus: thymus CD4+ cells
# [3] = developmental, duration: 16 days, gavage, M, B6C3F1, generation: F1, F1: spleen: Splenic NK cell activity
# [4] = short-term, duration: 7 days, gavage, M, BALB/c, spleen: lymphocyte proliferation (ConA)
# [5] = short-term, duration: 7 days, gavage, M, BALB/c, spleen: spleen CD3+ cells (cells normalized to control)
# [6] = short-term, duration: 7 days, gavage, M, C57BL/6, serum corticosterone + spleen: IFN-gamma levels + spleen: IL-2 secreting splenocytes + spleen: spleen: relative weight + thymus: thymus: …
# [7] = short-term, duration: 7 days, gavage, M, C57BL/6, serum corticosterone + spleen: lymphocyte proliferation (LPS) + spleen: spleen cellularity + spleen: spleen: relative weight + spleen: …
# [8] = short-term, duration: 7 days, gavage, M, C57BL/6, spleen: apoptotic splenocytes + spleen: spleen - mitochondrial membrane Rh123 fluorescence + spleen: spleen - ROS-DCF fluorescence + spleen…
# [9] = short-term, duration: 7 days, gavage, M, C57BL/6, spleen: splenic DN (CD4-CD8-) cells
# [10] = short-term, duration: 7 days, gavage, M, C57BL/6, spleen: splenocytes - CAT activity + spleen: splenocytes - GST activity + splenic lymphocyte protein - bax + splenic lymphocyte protein - …
# [11] = short-term, duration: 10 days, diet, M, 129/SV, spleen: spleen CD19+ cells + spleen: spleen CD4+ cells + spleen: spleen CD8+ cells + spleen: spleen cellularity + spleen: spleen Pan-NK+ …
# [12] = short-term, duration: 10 days, diet, M, C57BL/6, bone marrow: bone marrow cellularity + bone marrow: bone marrow: no. of CD19+ B-lymphoid cells + bone marrow: bone marrow: no. of Gr1+CD11b…
# [13] = short-term, duration: 10 days, diet, M, C57BL/6, spleen: spleen CD19+ cells + spleen: spleen CD4+ cells + spleen: spleen CD8+ cells + spleen: spleen cellularity + spleen: spleen NK1.1+ …
# [14] = short-term, duration: 10 days, diet, M, spleen: spleen: absolute weight + thymus: thymus CD4+ cells + thymus: thymus CD8+ cells + thymus: thymus cellularity + thymus: thymus DP (…
# [15] = short-term, duration: 12 days, gavage, M, C57BL/6, body mass after exposure + spleen: spleen CD8+ cells + spleen: spleen: relative weight + thymus: thymus: relative weight
# [16] = short-term, duration: 12 days, gavage, M, C57BL/6, spleen: spleen CD4+ cells + spleen: spleen cellularity
# [17] = short-term, duration: 14 days, gavage, F, BALB/c, spleen: spleen: relative weight + thymus: percentage of apoptotic cells in thymus + thymus: thymus: relative weight
# [18] = short-term, duration: 14 days, gavage, M, BALB/c, spleen: lymphocyte proliferation (ConA)
# [19] = short-term, duration: 14 days, gavage, M, BALB/c, spleen: spleen CD3+ cells + spleen: spleen CD3+CD4+ cells + spleen: spleen CD3+CD8+ cells
# [20] = short-term, duration: 14 days, gavage, M, BALB/c, spleen: spleen: relative weight
# [21] = short-term, duration: 21 days, gavage, F, B6C3F1, Survival rate (influenza A infection)
# [22] = short-term, duration: 21 days, gavage, M, BALB/c, spleen: lymphocyte proliferation (ConA)
# [23] = short-term, duration: 21 days, gavage, M, BALB/c, spleen: spleen CD3+ cells + spleen: spleen CD3+CD4+ cells + spleen: spleen CD3+CD8+ cells + spleen: spleen: relative weight
compound,measurement,setting,value
O=S(=O)(O)C(F)(F)C(F)(F)C(F)(F)C(F)(F)C(F)(F)C(F)(F)C(F)(F)C(F)(F)F [Perfluorooctanesulfonic acid],NOEL,"developmental, duration: 16 days, gavage, F, B6C3F1, generation: F1, F1: body weight (4 weeks of age) + F1: body weight (8 weeks of age) + F1: IgM antibody titer (SRBC) + F1: spleen: spleen CD3+ cells + F1: …",5 mg/kg-day
same,LOEL,[1],5 mg/kg-day
same,NOEL,[1],1 mg/kg-day
same,LOEL,[2],5 mg/kg-day
same,NOEL,[2],1 mg/kg-day
same,NOEL,"developmental, duration: 16 days, gavage, M, B6C3F1, generation: F1, F1: body weight (4 weeks of age) + F1: body weight (8 weeks of age) + F1: spleen: spleen B220+ cells + F1: spleen: spleen CD3+ cells + F1: …",5 mg/kg-day
same,LOEL,[3],1 mg/kg-day
same,NOEL,[3],0.1 mg/kg-day
same,NOEL,"reproduction developmental, diet, M/F, BALB/c, generation: F1, F1: airway MCh sensitivity + F1: airway resistance (at 25 mg/mL methacholine) + F1: lung: BALF inflammatory cell counts: eosinophils + F1: …",4 ppm
same,LOEL,"reproduction developmental, diet, M/F, BALB/c, generation: F1, F1: airway MCh sensitivity + F1: lung: BALF inflammatory cell counts: macrophages + F1: lung: BALF inflammatory cell counts: total cell …",4 ppm
same,NOEL,"short-term, duration: 3 weeks, gavage, F, BALB/c, IgM antibody level (TNP 1:200) + IgM antibody level (TNP 1:50)",20 mg/kg-day
same,LOEL,"short-term, duration: 7 days, gavage, F, BALB/c, Peripheral blood phagocytosis (HEMA) + spleen: lymphocyte proliferation (ConA) + spleen: spleen cellularity + spleen: Splenic NK cell …",20 mg/kg-day
same,NOEL,"short-term, duration: 7 days, gavage, F, BALB/c, spleen: lymphocyte proliferation (LPS) + spleen: spleen CD4+ cells + spleen: spleen CD49b+ cells + spleen: spleen CD8+ cells + spleen: …",20 mg/kg-day
same,LOEL,[4],10 mg/kg-day
same,NOEL,[4],5 mg/kg-day
same,LOEL,[5],5 mg/kg-day
same,NOEL,[5],2.5 mg/kg-day
same,NOEL,"short-term, duration: 7 days, gavage, M, BALB/c, spleen: spleen CD3+ cells + spleen: spleen CD3+CD4+ cells + spleen: spleen CD3+CD4+ cells (cells normalized to control) + spleen: spleen CD3…",10 mg/kg-day
same,LOEL,"short-term, duration: 7 days, gavage, M, C57BL/6, IgM antibody-secreting cells (SRBC) + spleen: lymphocyte proliferation (ConA)",5 mg/kg-day
same,LOEL,[6],20 mg/kg-day
same,NOEL,[6],5 mg/kg-day
same,LOEL,[7],20 mg/kg-day
same,NOEL,[7],5 mg/kg-day
same,LOEL,"short-term, duration: 7 days, gavage, M, C57BL/6, spleen: IL-4 levels + Total serum IgG level + Total serum IgM level",5 mg/kg-day
same,NOEL,"short-term, duration: 7 days, gavage, M, C57BL/6, spleen: IL-10 secreting splenocytes",20 mg/kg-day
same,LOEL,[8],5 mg/kg-day
same,NOEL,[8],1 mg/kg-day
same,NOEL,"short-term, duration: 7 days, gavage, M, C57BL/6, spleen: spleen: relative weight + thymus: thymus: relative weight",10 mg/kg-day
same,LOEL,[9],40 mg/kg-day
same,NOEL,[9],20 mg/kg-day
same,NOEL,"short-term, duration: 7 days, gavage, M, C57BL/6, spleen: splenic DP (CD4+CD8+) cells",40 mg/kg-day
same,LOEL,[10],10 mg/kg-day
same,NOEL,[10],5 mg/kg-day
same,LOEL,[11],0.02%
same,NOEL,[11],0.005%
same,NOEL,"short-term, duration: 10 days, diet, M, C57BL/6, blood serum: IL-6 levels (+LPS in vivo) + blood serum: TNF-alpha levels + blood serum: TNF-alpha levels (+LPS in vivo) + bone marrow: IL-6 …",0.02%
same,LOEL,"short-term, duration: 10 days, diet, M, C57BL/6, blood serum: IL-6 levels + bone marrow: IL-6 levels (+ LPS in vitro) + bone marrow: IL-6 levels (+ LPS in vivo) + bone marrow: percent …",0.02%
same,LOEL,[12],0.02%
same,NOEL,[12],0.002%
same,NOEL,"short-term, duration: 10 days, diet, M, C57BL/6, bone marrow: bone marrow: no. of early mature CD19+CD138-IgM+ B cells",0.02%
same,LOEL,"short-term, duration: 10 days, diet, M, C57BL/6, intrahepatic immune cells: TER119 (erythroid progenitor) + liver: IFN-gamma levels + liver: IL-4 levels + liver: TNF-alpha levels",0.005%
same,NOEL,"short-term, duration: 10 days, diet, M, C57BL/6, intrahepatic immune cells: all leukocytes (CD45+) + intrahepatic immune cells: B cells (CD19+) + intrahepatic immune cells: CD138 (plasma …",0.005%
same,LOEL,"short-term, duration: 10 days, diet, M, C57BL/6, liver: IFN-gamma levels + liver: IFN-gamma levels (+Con A) + liver: IL-4 levels + liver: IL-4 levels (+Con A) + liver: TNF-alpha levels + …",0.004%
same,LOEL,[13],0.02%
same,NOEL,[13],0.005%
same,NOEL,"short-term, duration: 10 days, diet, M, spleen: spleen CD19+ cells + spleen: spleen CD4+ cells + spleen: spleen CD8+ cells + spleen: spleen cellularity + spleen: spleen Pan-NK+ …",0.02%
same,LOEL,[14],0.02%
same,NOEL,[14],0.005%
same,LOEL,[15],10 mg/kg-day
same,NOEL,[15],5 mg/kg-day
same,LOEL,[16],20 mg/kg-day
same,NOEL,[16],10 mg/kg-day
same,LOEL,[17],20 mg/kg-day
same,NOEL,[17],5 mg/kg-day
same,NOEL,"short-term, duration: 14 days, gavage, M, BALB/c, spleen mRNA expression of IL-1Beta + thymus mRNA expression of IL-1Beta + thymus: percentage of apoptotic cells in thymus + thymus: thymus: …",20 mg/kg-day
same,LOEL,[18],10 mg/kg-day
same,NOEL,[18],5 mg/kg-day
same,LOEL,"short-term, duration: 14 days, gavage, M, BALB/c, spleen: spleen CD3+ cells (cells normalized to control) + spleen: spleen CD3+CD4+ cells (cells normalized to control) + spleen: spleen CD3+…",2.5 mg/kg-day
same,LOEL,[19],5 mg/kg-day
same,NOEL,[19],2.5 mg/kg-day
same,LOEL,[20],20 mg/kg-day
same,NOEL,[20],5 mg/kg-day and 10 mg/kg-day
same,LOEL,"short-term, duration: 14 days, gavage, M, BALB/c, thymus: percentage of apoptotic cells in thymus + thymus: thymus: relative weight",5 mg/kg-day
same,LOEL (TAD),"short-term, duration: 21 days, gavage, F, B6C3F1, IgM antibody titer (TNP)",7 mg/kg-day
same,LOEL,[21],0.025 mg/kg-day
same,NOEL,[21],0.005 mg/kg-day
same,NOEL,"short-term, duration: 21 days, gavage, F, B6C3F1, body weight + body weight during influenza A infection (day 41, 20 days after infection) + spleen: spleen: relative weight + Survival time (…",0.025 mg/kg-day
same,LOEL,"short-term, duration: 21 days, gavage, F, B6C3F1, body weight during influenza A infection (day 30, 9 days after infection)",0.005 mg/kg-day
same,LOEL,[22],5 mg/kg-day
same,NOEL,[22],2.5 mg/kg-day
same,LOEL,"short-term, duration: 21 days, gavage, M, BALB/c, spleen: spleen CD3+ cells (cells normalized to control) + spleen: spleen CD3+CD4+ cells (cells normalized to control) + spleen: spleen CD3+…",2.5 mg/kg-day
same,NOEL,"short-term, duration: 21 days, gavage, M, BALB/c, spleen: spleen CD3+ cells + spleen: spleen CD3+CD4+ cells (cells normalized to control) + spleen: spleen CD3+CD8+ cells (cells normalized to…",10 mg/kg-day
same,LOEL,[23],10 mg/kg-day
same,NOEL,[23],5 mg/kg-day
same,LOEL,"short-term, duration: 28 days, diet, M, B6C3F1, corticosterone",0.000156%
same,NOEL,"short-term, duration: 28 days, diet, M, B6C3F1, haemagglutination + IgG antibody level (SRBC 1:200) + IgM antibody-secreting cells (SRBC) + IgM antibody level (SRBC 1:200) + IgM antibody …",0.000156%
same,NOEL,"short-term, duration: 28 days, diet, M, C57BL/6, liver: IFN-gamma levels + liver: IFN-gamma levels (+Con A in vivo) + liver: IL-4 levels (+Con A in vivo) + liver: TNF-alpha levels + liver: …",0.0001%
same,NOEL,"short-term, duration: 28 days, gavage, F, B6C3F1, IL-4 levels (+PMA) + spleen (CD4+ T cells): IL-5 levels (+PMA) + spleen (CD4+ T cells): IL-6 levels (+anti-CD3) + spleen (CD4+ T cells): IL-…",0.0331 mg/kg-day
same,LOEL (TAD),"short-term, duration: 28 days, gavage, F, B6C3F1, IgM antibody-producing cells (SRBC)",0.5 mg/kg-day
